In patent US20230151046A1, “5-POSITION MODIFIED PYRIMIDINES” (Nuclera Nucleics Ltd., priority 2020, published 2023):
Blank lines part the entries; values can stand above or below the compound they belong to.

Assays:
[1] = Stability of 5-position modified 2′-deoxycytidine nucleosides to nitrite solution (nitrite-mediated deamination), LC-MS time course; format: physicochemical
Procedure: A series of 5-position modified nucleosides were tested. Each was incubated at room temperature in 700 mM NaNO2, 1 M acetate buffer pH 5.5 and the stability assayed by LC-MS over a time course. […] Electron withdrawing substituents such as the fluoro or alkynyl substituents increase stability. Electron donating substituents such as methyl and hydroxymethyl decrease stability.
LC-MS was used to monitor nucleosides throughout a time course of incubation in 700 mM sodium nitrite at pH 5.5. Integration of UV chromatograms was performed, and the percentage of starting nucleoside plotted.
In addition to monitoring the persistence of the starting material UV peak, the deamination products can be monitored. Deamination products were identified by their mass signals and appearance under nitrite incubation (FIG. 5).

[2] = Stability test of 2′-deoxycytidine and 2′-deoxy-5-fluorocytidine to methoxylamine (1× ORS), LC/MS; format: physicochemical; conditions: 1× ORS (methoxylamine, pH 5.5 acetate), room temperature (FIG. 9)
Procedure: Stability Test of 2′-Deoxycytidine and 2′-Deoxy-5-Fluorocytidine to methoxylamine Oxime removal solution buffer (2× ORS) was prepared from methyoxylamine hydrochloride (60 mg, 0.71 mmol), water (200 μL), pH 5.5 sodium acetate (200 μL) and 10 M sodium hydroxide (53.4 μL) and additional water (1.4 mL). A previously frozen sample of this buffer was further diluted with water by a factor of two to yield 1× ORS. Samples of 2′-deoxycytidine (˜0.5 mg) and 2′-deoxy-5-fluorocytidine (˜0.5 mg) were dissolved in 1 mL aliquots of the buffer. The samples were analysed by LC/MS immediately after making up the samples and at intervals while stored together at room temperature. Appearance of the reaction products 2′-deoxy-4(N)-methoxy cytidine (1) and 2′-deoxy-4(N)-methoxy-5-fluorocytidine (2) and a corresponding loss of starting material was observed. The corresponding loss of starting material relative to the reaction products is plotted on the graph below.
HPLC Method for LC/MS Analysis

- stability to nitrite solution (in words) ([1]; 700 mM NaNO2, 1 M acetate buffer pH 5.5, room temperature, relative to parent deoxycytidine): increased stability
SMILES: CC#Cc1cn([C@H]2C[C@H](O)[C@@H](CO)O2)c(=O)nc1N [5-propynyl, 5-propynyl-2′-deoxycytidine]

- rate of nitrite-mediated deamination, fold greater than the canonical deoxycytidine analogue ([1]; 700 mM pH 5.5 nitrite, room temperature (FIG. 2)): 2 fold
SMILES: Cc1cn([C@H]2C[C@H](O)[C@@H](CO)O2)c(=O)nc1N [5-methyl-2′deoxycytidine, reference compound]

- rate of nitrite-mediated deamination, fold lower than the canonical deoxycytidine analogue ([1]; 700 mM pH 5.5 nitrite, room temperature (FIG. 1)): 4 fold
- stability to methoxylamine treatment relative to canonical dC [2]: ~10 ×
SMILES: Nc1nc(=O)n([C@H]2C[C@H](O)[C@@H](CO)O2)cc1F [5-fluoro-2′-deoxycytidine]
